According to patent US6914045B2, “Glycopeptide antibiotics” (Wyeth Holdings Corporation, priority 2001, dated 2005):
Values after ≈ are worked out from the molar mass of the structure shown. Each block holds one molecule with its values, some of them ahead of it.

Experiments:
Assay in all cases: in vitro antibacterial evaluation, MIC by broth dilution
Format in all cases: cell-based
Enterococcus sp. = settings: broth dilution, 18 hours at 35° C.
Method: (§1) Methods for in vitro Antibacterial Evaluation (Table 1)
(§2) The minimum inhibitory concentration (MIC), the lowest concentration of the antibiotic which inhibits growth of the test organism, is determined by the broth dilution method using Muller-Hinton II […] (Baltimore Biological Laboratories) following the recommendations of the National Committee for Clinical Laboratory Standards [Methods for dilution antimicrobial susceptibility tests for bacteria that grow aerobically, approved standard M7-A2, National Committee for Clinical Laboratory Standards, Villanova, Pa.].
(§3) An inoculum level of 5×10^5 CFU/mL, and a range of antibiotic concentrations (64-0.06 μg/mL) is used. […] The test organisms include a spectrum of Gram-positive bacteria comprised of Staphylococcus sp., Streptococcus sp. and Enterococcus sp. These organisms include recent clinical isolates that are resistant to methicillin, penicillin and/or vancomycin.

Staphylococcus sp. = settings: broth dilution, 18 hours at 35° C.; for MIC Staphylococcus aureus (GC 1131): strain GC 1131; for MIC Staphylococcus aureus (ATCC 29213): strain ATCC 29213; for MIC Staphylococcus aureus (GC 3051): strain GC 3051; for MIC Staphylococcus aureus (GC 3053): strain GC 3053; for MIC Staphylococcus aureus (GC 4541): strain GC 4541; for MIC Staphylococcus aureus (GC 4542): strain GC 4542; for MIC Staphylococcus aureus-SMITH (GC 4543): strain GC 4543; for MIC Staphylococcus aureus (GC 4544): strain GC 4544; for MIC Staphylococcus aureus (GC 4545): strain GC 4545; for MIC Staphylococcus haemolyticus (GC 4546): strain GC 4546; for MIC Coagulase Negative Staphylococcus (GC 4547): strain GC 4547; for MIC Coagulase Negative Staphylococcus (GC 4548): strain GC 4548; for MIC Coagulase Negative Staphylococcus (GC 4549): strain GC 4549; for MIC Coagulase Negative Staphylococcus (GC 4551): strain GC 4551
Method: as §1, §2, §3

Streptococcus sp. = settings: broth dilution, 18 hours at 35° C.
Method: as §1, §2, §3

Escherichia coli = settings: 18 hours at 35° C.

- MIC Enterococcus avium (GC 4558) (Enterococcus sp.): 16 µg/mL (≈ 11.5 µM)
- MIC Enterococcus faecalis (ATCC 29212) (Enterococcus sp.): 16 µg/mL (≈ 11.5 µM)
- MIC Enterococcus faecalis (GC 2242) (Enterococcus sp.): 16 µg/mL (≈ 11.5 µM)
- MIC Enterococcus faecalis (GC 2691) (Enterococcus sp.): 16 µg/mL (≈ 11.5 µM)
- MIC Enterococcus faecalis (GC 3059) (Enterococcus sp.): 16 µg/mL (≈ 11.5 µM)
- MIC Enterococcus faecalis (GC 4552) (Enterococcus sp.): 16 µg/mL (≈ 11.5 µM)
- MIC Enterococcus faecalis (GC 4553) (Enterococcus sp.): 16 µg/mL (≈ 11.5 µM)
- MIC Enterococcus faecalis (GC 4554) (Enterococcus sp.): 16 µg/mL (≈ 11.5 µM)
- MIC Enterococcus faecalis (GC 6189) (Enterococcus sp.): 16 µg/mL (≈ 11.5 µM)
- MIC Enterococcus faecium (GC 2243) (Enterococcus sp.): 16 µg/mL (≈ 11.5 µM)
- MIC Enterococcus faecium (GC 4556) (Enterococcus sp.): 16 µg/mL (≈ 11.5 µM)
- MIC Enterococcus faecium (GC 4557) (Enterococcus sp.): 8 µg/mL (≈ 5.76 µM)
- MIC Enterococcus faecalis (ATCC 29212) (Enterococcus sp.; inoculum 5×10^5 CFU/mL, strain ATCC 29212): 16 µg/mL (≈ 11.5 µM)
- MIC Enterococcus faecalis (GC 2242) (Enterococcus sp.; inoculum 5×10^5 CFU/mL, strain GC 2242): 16 µg/mL (≈ 11.5 µM)
- MIC Enterococcus faecium (GC 2243) (Enterococcus sp.; inoculum 5×10^5 CFU/mL, strain GC 2243): 16 µg/mL (≈ 11.5 µM)
- MIC Enterococcus faecalis (GC 2691) (Enterococcus sp.; inoculum 5×10^5 CFU/mL, strain GC 2691): 16 µg/mL (≈ 11.5 µM)
- MIC Enterococcus faecalis (GC 3059) (Enterococcus sp.; inoculum 5×10^5 CFU/mL, strain GC 3059): 16 µg/mL (≈ 11.5 µM)
- MIC Enterococcus faecalis (GC 4552) (Enterococcus sp.; inoculum 5×10^5 CFU/mL, strain GC 4552): 16 µg/mL (≈ 11.5 µM)
- MIC Enterococcus faecalis (GC 4553) (Enterococcus sp.; inoculum 5×10^5 CFU/mL, strain GC 4553): 16 µg/mL (≈ 11.5 µM)
- MIC Enterococcus faecalis (GC 4554) (Enterococcus sp.; inoculum 5×10^5 CFU/mL, strain GC 4554): 16 µg/mL (≈ 11.5 µM)
- MIC Enterococcus faecium (GC 4556) (Enterococcus sp.; inoculum 5×10^5 CFU/mL, strain GC 4556): 16 µg/mL (≈ 11.5 µM)
- MIC Enterococcus faecium (GC 4557) (Enterococcus sp.; inoculum 5×10^5 CFU/mL, strain GC 4557): 8 µg/mL (≈ 5.76 µM)
- MIC Enterococcus avium (GC 4558) (Enterococcus sp.; inoculum 5×10^5 CFU/mL, strain GC 4558): 16 µg/mL (≈ 11.5 µM)
- MIC Enterococcus faecalis (GC 6189) (Enterococcus sp.; inoculum 5×10^5 CFU/mL, strain GC 6189): 16 µg/mL (≈ 11.5 µM)
- MIC Staphylococcus aureus (GC 1131) (Staphylococcus sp.; inoculum 5×10^5 CFU/mL): 8 µg/mL (≈ 5.76 µM)
- MIC Staphylococcus aureus (ATCC 29213) (Staphylococcus sp.): 4 µg/mL (≈ 2.88 µM)
- MIC Staphylococcus aureus (GC 1131) (Staphylococcus sp.): 8 µg/mL (≈ 5.76 µM)
- MIC Staphylococcus aureus (GC 3051) (Staphylococcus sp.): 4 µg/mL (≈ 2.88 µM)
- MIC Staphylococcus aureus (GC 3053) (Staphylococcus sp.): 8 µg/mL (≈ 5.76 µM)
- MIC Staphylococcus aureus (GC 4541) (Staphylococcus sp.): 4 µg/mL (≈ 2.88 µM)
- MIC Staphylococcus aureus (GC 4542) (Staphylococcus sp.): 4 µg/mL (≈ 2.88 µM)
- MIC Staphylococcus aureus-SMITH (GC 4543) (Staphylococcus sp.): 4 µg/mL (≈ 2.88 µM)
- MIC Staphylococcus aureus (GC 4544) (Staphylococcus sp.): 8 µg/mL (≈ 5.76 µM)
- MIC Staphylococcus aureus (GC 4545) (Staphylococcus sp.): 4 µg/mL (≈ 2.88 µM)
- MIC Coagulase Negative Staphylococcus (GC 4547) (Staphylococcus sp.): 4 µg/mL (≈ 2.88 µM)
- MIC Coagulase Negative Staphylococcus (GC 4548) (Staphylococcus sp.): 4 µg/mL (≈ 2.88 µM)
- MIC Coagulase Negative Staphylococcus (GC 4549) (Staphylococcus sp.): 2 µg/mL (≈ 1.44 µM)
- MIC Coagulase Negative Staphylococcus (GC 4551) (Staphylococcus sp.): 4 µg/mL (≈ 2.88 µM)
- MIC Streptococcus agalactiae (GC 4564) (Streptococcus sp.): 1 µg/mL (≈ 0.72 µM)
- MIC Streptococcus pneumoniae (ATCC 6301) (Streptococcus sp.): 0.5 µg/mL (≈ 0.36 µM)
- MIC Streptococcus pneumoniae (GC 1894) (Streptococcus sp.): 0.25 µg/mL (≈ 0.18 µM)
- MIC Streptococcus pneumoniae (GC 4565) (Streptococcus sp.): 0.5 µg/mL (≈ 0.36 µM)
- MIC Streptococcus pyogenes (GC 4563) (Streptococcus sp.): 0.5 µg/mL (≈ 0.36 µM)
- MIC Streptococcus pneumoniae (ATCC 6301) (Streptococcus sp.; inoculum 5×10^5 CFU/mL, strain ATCC 6301): 0.5 µg/mL (≈ 0.36 µM)
- MIC Streptococcus pneumoniae (GC 1894) (Streptococcus sp.; inoculum 5×10^5 CFU/mL, strain GC 1894): 0.25 µg/mL (≈ 0.18 µM)
- MIC Streptococcus pyogenes (GC 4563) (Streptococcus sp.; inoculum 5×10^5 CFU/mL, strain GC 4563): 0.5 µg/mL (≈ 0.36 µM)
- MIC Streptococcus agalactiae (GC 4564) (Streptococcus sp.; inoculum 5×10^5 CFU/mL, strain GC 4564): 1 µg/mL (≈ 0.72 µM)
- MIC Streptococcus pneumoniae (GC 4565) (Streptococcus sp.; inoculum 5×10^5 CFU/mL, strain GC 4565): 0.5 µg/mL (≈ 0.36 µM)
- MIC Escherichia coli (ATCC 25922) (Escherichia coli): 128 µg/mL (≈ 92.1 µM)
- MIC Escherichia coli (GC 4559) (Escherichia coli): 128 µg/mL (≈ 92.1 µM)
- MIC Escherichia coli (GC 4560) (Escherichia coli): 4 µg/mL (≈ 2.88 µM)
SMILES: CC(c1ccccc1)C1NC(=O)CNC(=O)C(CO)NC(=O)C(C(O)C2CNC(=N)N2C2OC(CO)C(O)C(O)C2O)NC(=O)C(C(O)C2CNC(=N)N2)NC(=O)C(Cc2ccc(OC3OC(CO)C(OC4OC5COC6(CCCCC6C)OC5C(O)C4O)C(O)C3O)cc2)NC1=O (stereo not drawn) [Example 204]
- MIC Staphylococcus haemolyticus (GC 4546) (Staphylococcus sp.): 2 µg/mL (≈ 1.44 µM)

- MIC Enterococcus faecalis (ATCC 29212) (Enterococcus sp.; strain ATCC 29212): >128 µg/mL
- MIC Enterococcus faecalis (GC 2242) (Enterococcus sp.; strain GC 2242): >128 µg/mL
- MIC Enterococcus faecium (GC 2243) (Enterococcus sp.; strain GC 2243): >128 µg/mL
- MIC Enterococcus faecalis (GC 2691) (Enterococcus sp.; strain GC 2691): >128 µg/mL
- MIC Enterococcus faecalis (GC 3059) (Enterococcus sp.; strain GC 3059): >128 µg/mL
- MIC Enterococcus faecalis (GC 4552) (Enterococcus sp.; strain GC 4552): >128 µg/mL
- MIC Enterococcus faecalis (GC 4553) (Enterococcus sp.; strain GC 4553): >128 µg/mL
- MIC Enterococcus faecalis (GC 4554) (Enterococcus sp.; strain GC 4554): >128 µg/mL
- MIC Enterococcus faecium (GC 4556) (Enterococcus sp.; strain GC 4556): >128 µg/mL
- MIC Enterococcus faecium (GC 4557) (Enterococcus sp.; strain GC 4557): >128 µg/mL
- MIC Enterococcus avium (GC 4558) (Enterococcus sp.; strain GC 4558): 128 µg/mL (≈ 126 µM)
- MIC Enterococcus faecalis (GC 6189) (Enterococcus sp.; strain GC 6189): >128 µg/mL
- MIC Staphylococcus aureus (ATCC 29213) (Staphylococcus sp.): >128 µg/mL
- MIC Staphylococcus aureus (GC 1131) (Staphylococcus sp.): >128 µg/mL
- MIC Staphylococcus aureus (GC 3051) (Staphylococcus sp.): >128 µg/mL
- MIC Staphylococcus aureus (GC 3053) (Staphylococcus sp.): >128 µg/mL
- MIC Staphylococcus aureus (GC 4541) (Staphylococcus sp.): >128 µg/mL
- MIC Staphylococcus aureus (GC 4542) (Staphylococcus sp.): >128 µg/mL
- MIC Staphylococcus aureus-SMITH (GC 4543) (Staphylococcus sp.): >128 µg/mL
- MIC Staphylococcus aureus (GC 4544) (Staphylococcus sp.): >128 µg/mL
- MIC Staphylococcus aureus (GC 4545) (Staphylococcus sp.): >128 µg/mL
- MIC Coagulase Negative Staphylococcus (GC 4547) (Staphylococcus sp.): >128 µg/mL
- MIC Coagulase Negative Staphylococcus (GC 4548) (Staphylococcus sp.): >128 µg/mL
- MIC Coagulase Negative Staphylococcus (GC 4549) (Staphylococcus sp.): >128 µg/mL
- MIC Coagulase Negative Staphylococcus (GC 4551) (Staphylococcus sp.): >128 µg/mL
- MIC Coagulase Negative Staphylococcus (GC 6257) (Staphylococcus sp.; strain GC 6257): >128 µg/mL
- MIC Streptococcus pneumoniae (ATCC 6301) (Streptococcus sp.; strain ATCC 6301): >128 µg/mL
- MIC Streptococcus pneumoniae (GC 1894) (Streptococcus sp.; strain GC 1894): 128 µg/mL (≈ 126 µM)
- MIC Streptococcus pyogenes (GC 4563) (Streptococcus sp.; strain GC 4563): >128 µg/mL
- MIC Streptococcus agalactiae (GC 4564) (Streptococcus sp.; strain GC 4564): 128 µg/mL (≈ 126 µM)
- MIC Streptococcus pneumoniae (GC 4565) (Streptococcus sp.; strain GC 4565): 128 µg/mL (≈ 126 µM)
- MIC Escherichia coli (ATCC 25922) (Escherichia coli; strain ATCC 25922, broth dilution): >128 µg/mL
- MIC Escherichia coli (GC 4559) (Escherichia coli; strain GC 4559, broth dilution): >128 µg/mL
- MIC Escherichia coli (GC 4560) (Escherichia coli; strain GC 4560, broth dilution): 128 µg/mL (≈ 126 µM)
SMILES: CC(c1ccccc1)C1NC(=O)CNC(=O)C(CO)NC(=O)C(C(O)C2CNC(=N)N2C2OC(CO)C(O)C(O)C2O)NC(=O)C(C(O)C2CNC(=N)N2)NC(=O)C(Cc2ccc(O)c(N(C)C)c2)NC1=O (stereo not drawn) [Example 12, Cyclo[glycyl-β-methylphenylalanyl-3-(dimethylamino)tyrosyl-3-(2-iminoimidazolidin-4-yl)-seryl-3-(3-hexopyranosyl-2-iminoimidazolidin-4-yl)serylseryl]]
- MIC Staphylococcus haemolyticus (GC 4546) (Staphylococcus sp.): >128 µg/mL
